Experimental data as given in publication PMC9481563, “Structural insights into the pSer/pThr dependent regulation of the SHP2 tyrosine phosphatase in insulin and CD28 signaling” (Nature Communications, 2022).

Molecular target: T1, SHP2 catalytic domain (219–528), C459S, wild-type (inactive) (Homo sapiens, UniProt Q06124, C459S)
T1 construct: SHP2 catalytic domains (219–528 with or without C459S) were sub-cloned into pBH4 vectors; His6 (N); made in house; host or cells: E. coli BL21 (DE3)
T1 sequence (Q06124 219-528 C459S): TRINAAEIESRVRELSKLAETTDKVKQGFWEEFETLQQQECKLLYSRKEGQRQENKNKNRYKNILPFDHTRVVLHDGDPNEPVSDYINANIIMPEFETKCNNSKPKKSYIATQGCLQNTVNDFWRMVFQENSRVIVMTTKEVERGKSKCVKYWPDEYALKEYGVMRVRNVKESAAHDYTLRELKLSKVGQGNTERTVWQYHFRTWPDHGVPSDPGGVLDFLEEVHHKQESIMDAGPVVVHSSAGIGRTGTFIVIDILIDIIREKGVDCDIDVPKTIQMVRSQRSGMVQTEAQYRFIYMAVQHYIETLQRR
Assay: Fluorescence polarization titrations, inactive SHP2 catalytic domain
Type: binding
Settings: competitive FP titration vs CF-ppIRS1 100 nM, protein fixed, unlabelled peptide varied; n = 3 technical replicates
Description: The two SH2 domains of PI3KR1 (UniProt P27986; nSH2: 321−433 cSH2: 614–724) were cloned from HEK293T cDNA pool, and subsequently ligated into a modified pET vector encoding maltose binding protein (MBP) tag on the N-terminal and a hexa-His tag on the C-terminal end of the construct. Similarly, the catalytic, tyrosine phosphatase domains of PTPRε (P23469 first domain: 107–399) and PTP1B (P18031; 1–229) were cloned from a HEK293T cDNA pool, and inserted into a pBH4 vector encoding an N-terminal His6 tag (for the final binding experiments, an MBP-tagged version of PTPRε was employed). […] Wild-type C-terminal FLAG-tagged human IRS1 was cloned between HindIII-NotI sites of pcDNA3.1(+) vector (#V79020 Invitrogen, Waltham MA USA). Ser/Ala mutant IRS1 was generated by replacing the region of S616/S636/S666/S736 positions with a cassette carrying S616A/S636A/S666A/S736A mutations. All constructs were validated by complete Sanger sequencing before protein expression and purification. The oligonucleotide sequences used are shown on Supplementary table 4.
Fluorescence polarization was always measured in triplicates, on black Corning low volume round bottom 384-well plates (with 10 ul volumes), using a BioTek Cytatation 5 reader, with the green fluorescent protein (GFP) cube filter set (ex: 485/20, em: 528/20, gain: 50, height: 7.5). Fluorescence polarization data was evaluated on Origin 2018. The dissociation constants (Kd) were determined by using the appropriate quadratic and cubic equations inserted as a user-defined function and applying nonlinear fit until convergence. The fitting formulae are shown at Supplementary note 1. Kd ratio distributions for Fig. 6 were calculated using a Monte-Carlo approach (Supplementary note 2).
Supplementary note 1. Curve fitting of fluorescence polarization (FP) measurements.
To evaluate polarization values from direct and competitive titrations, we used the following fitting formulae in Origin 2018, as detailed below.
Direct titration curves were fitted according to the following formula: […]
Where Imin is the minimal anisotropy, Imax is the (asymptotically estimated) maximal intensity. K0 is the starting concentration of the protein, while T0 is the (fixed) concentration of the labelled peptide and Kd is the dissociation constant.
Competitive titration curves were fitted with a different formula (In addition to those defined above, constants KdT KdB B0 T0 and D0 here refer to the Kd derived from the direct titration, the unknown Kd of the analyte, the labelled peptide concentration, the competitor peptide concentration as well as the protein concentration, respectively).
The ± sign refers to two different scenarios, depending on the sign of discriminant (KdT > KdB or […]). For unknown analytes, the choice of sign is not arbitrary, as the fitting will not converge unless the appropriate formula is chosen: […]
Where A, B and C correspond to the following expressions: […]

CSCC[C@H](NC(=O)[C@H](Cc1ccc(OP(=O)(O)O)cc1)NC(=O)[C@H](CC(=O)O)NC(=O)[C@H](CO)NC(=O)[C@H](Cc1c[nH]cn1)NC(=O)[C@H](CC(C)C)NC(=O)[C@H](CC(C)C)NC(=O)[C@H](CCCNC(=N)N)NC(=O)[C@H](CO)NC(=O)[C@@H](N)CCCNC(=N)N)C(=O)N[C@@H](CC(N)=O)C(=O)N[C@@H](CCSC)C(=O)N[C@H](C(=O)N1CCC[C@H]1C(=O)N[C@@H](CCCNC(=N)N)C(=O)N[C@@H](CCCNC(=N)N)C(=O)O)[C@@H](C)O [p0CD28]
Kd: 39.7 ± 1.81 µM

CSCC[C@H](NC(=O)[C@@H]1CCCN1C(=O)[C@H](CCSC)NC(=O)[C@H](Cc1ccc(OP(=O)(O)O)cc1)NC(=O)[C@H](CC(=O)O)NC(=O)CNC(=O)[C@H](CO)NC(=O)CNC(=O)[C@H](CCCCN)NC(=O)[C@H](CCCNC(=N)N)NC(=O)CN)C(=O)N[C@@H](CO)C(=O)N1CCC[C@H]1C(=O)N[C@@H](CCCCN)C(=O)N[C@@H](CO)C(=O)O [p0IRS1]
Kd: 255 ± 34.9 µM

CC[C@H](C)[C@H](NC(=O)[C@H](CC(N)=O)NC(=O)[C@@H](NC(=O)[C@H](Cc1ccc(OP(=O)(O)O)cc1)NC(=O)[C@H](CCC(=O)O)NC(=O)CNC(=O)[C@@H]1CCCN1C(=O)[C@H](CO)NC(=O)[C@H](CCCCN)NC(=O)[C@@H]1CCCN1C(=O)[C@@H](N)CCC(=O)O)C(C)C)C(=O)N[C@@H](CCC(=O)O)C(=O)N[C@@H](Cc1ccccc1)C(=O)O [p0SRev-IRS1]
Kd: 8.4 ± 0.75 µM

CSCC[C@H](NC(=O)[C@H](Cc1ccc(OP(=O)(O)O)cc1)NC(=O)[C@H](CC(=O)O)NC(=O)[C@H](CO)NC(=O)[C@H](Cc1c[nH]cn1)NC(=O)[C@H](CC(C)C)NC(=O)[C@H](CC(C)C)NC(=O)[C@H](CCCNC(=N)N)NC(=O)[C@H](CO)NC(=O)[C@@H](N)CCCNC(=N)N)C(=O)N[C@@H](CC(N)=O)C(=O)N[C@@H](CCSC)C(=O)N[C@H](C(=O)N1CCC[C@H]1C(=O)N[C@@H](CCCNC(=N)N)C(=O)N[C@@H](CCCNC(=N)N)C(=O)O)[C@@H](C)OP(=O)(O)O [ppCD28]
Kd: 5.66 ± 0.29 µM

CSCC[C@H](NC(=O)[C@@H]1CCCN1C(=O)[C@H](CCSC)NC(=O)[C@H](Cc1ccc(OP(=O)(O)O)cc1)NC(=O)[C@H](CC(=O)O)NC(=O)CNC(=O)[C@H](CO)NC(=O)CNC(=O)[C@H](CCCCN)NC(=O)[C@H](CCCNC(=N)N)NC(=O)CN)C(=O)N[C@@H](COP(=O)(O)O)C(=O)N1CCC[C@H]1C(=O)N[C@@H](CCCCN)C(=O)N[C@@H](CO)C(=O)O [ppIRS1]
Kd: 5.25 ± 0.3 µM

CC[C@H](C)[C@H](NC(=O)[C@H](CC(N)=O)NC(=O)[C@@H](NC(=O)[C@H](Cc1ccc(OP(=O)(O)O)cc1)NC(=O)[C@H](CCC(=O)O)NC(=O)CNC(=O)[C@@H]1CCCN1C(=O)[C@H](COP(=O)(O)O)NC(=O)[C@H](CCCCN)NC(=O)[C@@H]1CCCN1C(=O)[C@@H](N)CCC(=O)O)C(C)C)C(=O)N[C@@H](CCC(=O)O)C(=O)N[C@@H](Cc1ccccc1)C(=O)O [ppSRev-IRS1]
Kd: 0.72 ± 0.06 µM
